These results are taken from patent US20260285801A1, “LIPID NANOPARTICLE FOR TARGETED DELIVERY OF THERAPEUTIC PAYLOADS” (Trustees of Tufts College, priority 2023, published 2026).

Data set [1] in a line: Encapsulation efficiency and mRNA quantity by Ribogreen fluorescence plate assay. Type of data set: physicochemical. To be noted: LNP with mRNA payload formulated with the lipid, 16.8/4.0/2.0/1.0, Lipids:mRNA 25:1; for EE %: (total RNA - unencapsulated RNA)/total RNA. As to the method:
(§1) RNA working solutions (0.134 mg/ml) were prepared in 25 mM sodium acetate buffer using DNase/RNase-free distilled water. Lipid stock solutions (10 mg/mL) were freshly prepared with active lipids or helper lipids (e.g., cholesterol, DOPC or DSPC, or ALC-0159) in ethanol. Reagents were mixed by vortexing and sonicating until the lipids were completely dissolved. A lipid mixture was first prepared by combining the active lipids (e.g., ionizable lipids of the present disclosure) and helper lipids into one vial and mixing thoroughly. Lipid nanoparticles were then formed by mixing the RNA working solution (0.134 mg/ml) and the lipid mixture at 3:1 volume ratio, either manually (for smaller scale) or by Precision Igniter microfluidic device. The formulation solution was transferred into a 300 kDa MWCO Float-A-Lyzer G2 Dialysis Device and dialyzed against at least 1000-folds volume of 50 mM Tris buffer overnight at 4° C. The LNP solution was sterilized with a 0.22 μm filter.
(§2) For LNP characterization, size and polydispersity index (PDI) were determined by dynamic light scattering using a Zetasizer Nano ZS. 10 μL of LNP suspension was transferred to a low-volume cuvette containing 900 μL of Ca^2+ and Mg^2+ free PBS at pH 7.4. Refractive index was set to […] and temperature was set to 25° C. Encapsulation efficiency (EE %) was measured using a fluorescence plate-based assay employing the Ribogreen reagent (Invitrogen) as per PNI Ribogreen assay protocol 16. This assay measures the quantity of mRNA in samples with intact LNPs to determine the quantity of unencapsulated RNA as well as in LNP samples disrupted by triton X-100 to measure the total RNA. EE % is calculated as the difference between the total RNA and the unencapsulated RNA divided by the total RNA.

In data set [2] the test system is female adult BALB/c mice. Put plainly: IV injection of Luc mRNA/LNP, whole body bioluminescence by IVIS imaging. The data set is classed as in vivo. To be noted: single i.v., 5 μg mRNA, 6 hours post injection; for delivery of the luciferase mRNA to the liver in vivo (luciferase intensity, IVIS): LNPs of L88, L854, L855 compared, FIGS. 4A-5B. How it is done:
All animal experiments were conducted in accordance with the approved animal protocols. LNPs were formulated with lipids and mRNA encoding Luciferase (Luc) based on TABLE 3. LNPs comprising 5 μg mRNA and 50 μg active lipids (e.g., ionizable lipids) were injected intravenously (i.v.) to female adult BALB/c mice (6-8 wk. old). Six hours post injection, 100 μL of luciferin K salt (15 mg/mL in PBS) was administered to the mice through intraperitoneal injections. The mice were then imaged using the In Vivo Imaging System (IVIS) and the total flux of areas of interest was quantified. FIGS. 2A-2G illustrate representative IVIS data using the LNPs formulated with active lipids from TABLE 4. […] FIGS. 4A-7B show further analysis of the IVIS results. In FIGS. 4A-4B and FIGS. 5A-5B, the lipid nanoparticles were formulated with luciferase mRNA and lipids L88, L854, and L855, respectively. The experiment was conducted in duplicates. […] Existing lipid formulations in the industry were used as controls in the experiment. For example, lipids provided herein were compared to ALC-0315 (Pfizer) and SM-102 (Moderna).

Data set [3] is described as follows: LNP size and polydispersity index by dynamic light scattering (Zetasizer Nano ZS). The data set is classed as physicochemical. The settings on record: LNP with mRNA payload formulated with the lipid; active lipid/Cholesterol/DOPC/DMG-PEG 16.8/4.0/2.0/1.0; Lipids:mRNA 25:1; PBS pH 7.4, 25° C. How it is done:
as §1, §2

Structures are written as SMILES.

Turning to `CCCCCCC(CCCC)COC(=O)CCOC(=O)CCN(CCC(=O)OCCC(=O)OCC(CCCC)CCCCCC)CCN(C)CCN(CCC(=O)OCCC(=O)OCC(CCCC)CCCCCC)CCC(=O)OCCC(=O)OCC(CCCC)CCCCCC` (centres unmarked) [Lipid L0855], in data set [1], the “[mRNA] Ug/ml” value turned out to be 78.9 Ug/ml and the EE % is listed as 95.1%. The “delivery of the luciferase mRNA to the liver in vivo (luciferase intensity, IVIS)” value in data set [2] is recorded as “more efficient delivery of the luciferase mRNA to the liver”. For the same compound, the “luciferase mRNA delivery compared to SM-102” value in data set [2] (FIGS. 7A-7B) was “more luciferase mRNA delivery than SM-102”. Moreover, in data set [3], the PDI came to 0.125 and the “Size (nm)” value came out at 99.86 nm.
For `CCCCCCC(CCCC)COC(=O)CCOC(=O)CCN(CCCN(C)CCCN(CCC(=O)OCCC(=O)OCC(CCCC)CCCCCC)CCC(=O)OCCC(=O)OCC(CCCC)CCCCCC)CCC(=O)OCCC(=O)OCC(CCCC)CCCCCC` (centres unmarked) [Lipid L0854], in data set [1], the “[mRNA] Ug/ml” value is 77.7 Ug/ml and the EE % is 94.6%. Moreover, the “delivery of the luciferase mRNA to the liver in vivo (luciferase intensity, IVIS)” value in data set [2] is “more efficient delivery of the luciferase mRNA to the liver”. In addition, the “luciferase mRNA delivery to the liver compared to ALC-0315” value in data set [2] (FIGS. 6A-6B) was “more luciferase mRNA delivery to the liver than ALC-0315”. In data set [3], the PDI is 0.098 and the “Size (nm)” value is 120.3 nm.
For the compound `CCCCCCC(CCCC)COC(=O)OCCOC(=O)CCN(CCCN(CCCNC(=S)NC)CCCN(CCC(=O)OCCOC(=O)OCC(CCCC)CCCCCC)CCC(=O)OCCOC(=O)OCC(CCCC)CCCCCC)CCC(=O)OCCOC(=O)OCC(CCCC)CCCCCC` (centres unmarked) [Lipid L0773], in data set [1], the “[mRNA] Ug/ml” value was 95.3 Ug/ml and the EE % is on record as 98.7%. Moreover, in data set [3], the PDI worked out at 0.089 and the “Size (nm)” value is reported as 135.3 nm.
The matching figures for `CCCCCCC(CCCC)COC(=O)OCCOC(=O)CCN(CCCN(CCCCO)CCCN(CCC(=O)OCCOC(=O)OCC(CCCC)CCCCCC)CCC(=O)OCCOC(=O)OCC(CCCC)CCCCCC)CCC(=O)OCCOC(=O)OCC(CCCC)CCCCCC` (centres unmarked) [Lipid L0667]: 77.3 Ug/ml, 97%, 0.19 and 101.7 nm.
The matching figures for `CCC1CC1CCCCSSCCOC(=O)CCN(CCCN(C)CCCN(CCC(=O)OCCSSCCCCC1CC1CC)CCC(=O)OCCSSCCCCC1CC1CC)CCC(=O)OCCSSCCCCC1CC1CC` (centres unmarked) [Lipid L0586]: 78 Ug/ml, 21.2%, 0.079 and 151.8 nm.
The matching figures for `CCCCCCC(CCCC)COC(=O)OCCOC(=O)CCN(CCCN(CCCO)CCCN(CCC(=O)OCCOC(=O)OCC(CCCC)CCCCCC)CCC(=O)OCCOC(=O)OCC(CCCC)CCCCCC)CCC(=O)OCCOC(=O)OCC(CCCC)CCCCCC` (centres unmarked) [Lipid L0666]: 71.9 Ug/ml, 96.1%, 0.26 and 246.5 nm.
Take `CCCCC/C=C\CCCOC(=O)CCN(CCCN(C)CCCN(CCC(=O)OCCC/C=C\CCCCC)CCC(=O)OCCC/C=C\CCCCC)CCC(=O)OCCC/C=C\CCCCC` [Lipid L0824]: in data set [1], the “[mRNA] Ug/ml” value amounted to 93.4 Ug/ml and the EE % is given as 68%. For the same compound, in data set [3], the PDI was determined as 0.12 and the “Size (nm)” value came out at 95.98 nm.
